These results are taken from patent US10681909B2, “Herbicidal triazoles” (FMC Corporation, priority 2014, dated 2020).

Structures are written as SMILES.

One assay concerns bluegrass. The experiment in a line: Test D preemergence. It counts as in vivo, Poa annua. As to conditions: for Plant response rating: Bluegrass: scale 0 to 100. The text has this:
(§1) Seeds of plant species selected from bluegrass (annual bluegrass, Poa annua), blackgrass (Alopecurus myosuroides), canarygrass (Phalaris minor), chickweed (common chickweed, Stellaria media), galium (catchweed bedstraw, Galium aparine), bromegrass, down (downy bromegrass, Bromus tectorum), Russian thistle (Salsola kali), field poppy (Papaver rhoeas), field violet (Viola arvensis), foxtail, green (green foxtail, Setaria viridis), deadnettle (henbit deadnettle, Lamium amplexicaule), ryegrass, Ital. (Italian ryegrass, Lolium multiflorum), kochia (Kochia scoparia), lambsquarters (Chenopodium album), oilseed rape (Brassica napus), pigweed (Amaranthus retroflexus), chamomile (scentless chamomile, Matricaria inodora), speedwell (bird's-eye speedwell, Veronica persica), barley, spring (spring barley, Hordeum vulgare), wheat, spring (spring wheat, Triticum aestivum), buckwheat, wild (wild buckwheat, Polygonum convolvulus), wild mustard (Sinapis arvensis), oat, wild (wild oat, Avena fatua), radish, wild (wild radish, Raphanus raphanistrum), […]), barley, winter (winter barley, Hordeum vulgare), and wheat, winter (winter wheat, Triticum aestivum) were planted into a silt loam soil and treated preemergence with test chemicals formulated in a non-phytotoxic solvent mixture which included a surfactant. At the same time, these species were planted in pots containing Sunshine Redi-Earth® planting medium comprising spaghnum peat moss, vermiculite, starter nutrients and dolomitic limestone and treated with postemergence applications of the test chemicals formulated in the same manner. Plants ranged in height from 2 to 18 cm (1- to 4-leaf stage). Treated plants and controls were maintained in a controlled growth environment for 14 to 21 d after which time all species were compared to controls and visually evaluated. […] A dash (-) response means no test result.

A further assay relates to barley, spring. Briefly: Test D postemergence. As to conditions: scale 0 to 100. It counts as in vivo, Hordeum vulgare.
Excerpt: as §1

A further assay has as its system barley, winter. Briefly: Test D postemergence. Conditions: scale 0 to 100. The class given is in vivo, Hordeum vulgare.
Excerpt: as §1

The test system of another assay is wheat (winter wheat). Briefly: Test C preemergence. It counts as in vivo, Triticum aestivum. Conditions: for Wheat plant response rating (0 to 100): Preemergence, visual rating after 13 to 15 d; for Plant response rating (scale of 0 to 100 where 0 is no effect and 100 is complete control): Wheat, preemergence, 250 g ai/ha. The text has this: (§2) Seeds of plant species selected from blackgrass (Alopecurus myosuroides), ryegrass, Italian (Italian ryegrass, Lolium multiflorum), wheat (winter wheat, Triticum aestivum), galium (catchweed bedstraw, Galium aparine), corn (Zea mays), crabgrass, large (large crabgrass, Digitaria sanguinalis), foxtail, giant, (giant foxtail, Setaria faberii), johnsongrass (Sorghum halepense), lambsquarters (Chenopodium album), morningglory (Ipomoea coccinea), nutsedge, yellow (yellow nutsedge, Cyperus esculentus), pigweed (Amaranthus retroflexus), ragweed (common ragweed, Ambrosia elatior), soybean (Glycine max), barnyardgrass (Echinochloa crus-galli), oilseed rape (Brassica napus), waterhemp (common waterhemp, Amaranthus rudis), and velvetleaf (Abutilon theophrasti) were planted into a blend of loam soil and sand and treated preemergence with test chemicals formulated in a non-phytotoxic solvent mixture which included a surfactant. At the same time, plants selected from these crop and weed species and also chickweed (common chickweed, Stellaria media), oat, wild (wild oat, Avena fatua), and kochia (Kochia scoparia), were planted in pots containing Sunshine Redi-Earth® planting medium comprising spaghnum peat moss, vermiculite, starter nutrients and dolomitic limestone and treated with postemergence applications of test chemicals formulated in the same manner. Plants ranged in height from 2 to 18 cm (1- to 4-leaf stage) for postemergence treatments. […] A dash (-) response means no test result.

Another assay concerns foxtail, green. The experiment in a line: Test D preemergence. The class given is in vivo, Setaria viridis. Conditions: for Plant response rating: Foxtail, Green: scale 0 to 100.
Excerpt: as §1

The next assay relates to kochia. The experiment in a line: Test D postemergence. It counts as in vivo, Kochia scoparia. As to conditions: scale 0 to 100.
Excerpt: as §1

A further assay relates to barnyardgrass. The experiment in a line: Test C preemergence. It counts as in vivo, Echinochloa crus-galli. Conditions: for Plant response rating (scale of 0 to 100 where 0 is no effect and 100 is complete control): Barnyardgrass, preemergence; for Barnyardgrass plant response rating (0 to 100): Preemergence, visual rating after 13 to 15 d.
Excerpt: as §2

The subject of the next assay is galium. Briefly: Test A postemergence. As to conditions: 0 to 100 scale (0 no effect, 100 complete control), approx. 10 d. It counts as in vivo, Galium aparine. The text has this:
(§3) Seeds of plant species selected from barnyardgrass (Echinochloa crus-galli), crabgrass, large (large crabgrass, Digitaria sanguinalis), kochia (Kochia scoparia), ragweed (common ragweed, Ambrosia elatior), foxtail, giant (giant foxtail, Setaria faberii), morningglory (Ipomoea spp.), pigweed (Amaranthus retroflexus), velvetleaf (Abutilon theophrasti), ryegrass, Italian (Italian ryegrass, Lolium multiflorum), wheat (Triticum aestivum), and corn (Zea mays) were planted into a blend of loam soil and sand and treated preemergence with a directed soil spray using test chemicals formulated in a non-phytotoxic solvent mixture which included a surfactant.
(§4) At the same time, plants selected from these crop and weed species and also blackgrass (Alopecurus myosuroides), and galium (catchweed bedstraw, Galium aparine), were planted in pots containing the same blend of loam soil and sand and treated with postemergence applications of test chemicals formulated in the same manner. Plants ranged in height from 2 to 10 cm and were in the one- to two-leaf stage for the postemergence treatment. Treated plants and untreated controls were maintained in a greenhouse for approximately 10 d, after which time all treated plants were compared to untreated controls and visually evaluated for injury. Plant response ratings, summarized in Table A, are based on a 0 to 100 scale where 0 is no effect and 100 is complete control. A dash (-) response means no test result.

The next assay relates to ryegrass, Italian. Briefly: Test A postemergence. It counts as in vivo, Lolium multiflorum. Conditions: 0 to 100 scale (0 no effect, 100 complete control), approx. 10 d.
Excerpt: as §3, §4

[1] abbreviates: 16 g ai/ha, 0 is no effect, 100 is complete control.

As for `CCc1nc(-c2ccc(C(F)(F)F)cc2)nn1Cc1ccnc(C(F)(F)F)c1` [Compound 1, 4-[[5-ethyl-3-[4-(trifluoromethyl)phenyl]-1H-1,2,4-triazol-1-yl]methyl]-2-(trifluoromethyl)pyridine], the “Plant response rating: Bluegrass” value with bluegrass (31 g ai/ha) turned out to be 10; in the assay with bluegrass (62 g ai/ha), 35; in the assay with bluegrass (125 g ai/ha), 60; in the assay with bluegrass (250 g ai/ha) it was 100. Also, the “Plant response rating: Barley, Spring” value was 20 in the assay on barley, spring (31 g ai/ha); 35 with barley, spring (62 g ai/ha); 35 in the assay with barley, spring (125 g ai/ha); 40 with barley, spring (250 g ai/ha). The “Plant response rating: Barley, Winter” value in the assay with barley, winter (31 g ai/ha) is 20; in the assay with barley, winter (62 g ai/ha), 25; with barley, winter (125 g ai/ha), 35; with barley, winter (250 g ai/ha) it was 40. For the same molecule, the “Wheat plant response rating (0 to 100)” value in the assay on wheat (winter wheat) (31 g ai/ha) and with wheat (winter wheat) (62 g ai/ha) was 0 in each case. Besides, the “Plant response rating (scale of 0 to 100 where 0 is no effect and 100 is complete control)” value in the assay on wheat (winter wheat) is recorded as 5; with barnyardgrass (125 g ai/ha), 55; in the assay on barnyardgrass (250 g ai/ha), 70. Also, the “Plant response rating: Foxtail, Green” value in the assay with foxtail, green (62 g ai/ha) is 100; with foxtail, green (125 g ai/ha) it was 100; in the assay with foxtail, green (250 g ai/ha), 100. In addition, the “Plant response rating: Kochia” value worked out at 65 with kochia (31 g ai/ha), 75 in the assay with kochia (62 g ai/ha), 80 in the assay on kochia (125 g ai/ha) and 80 in the assay on kochia (250 g ai/ha). The “Barnyardgrass plant response rating (0 to 100)” value is on record as 10 in the assay on barnyardgrass (31 g ai/ha) and 35 with barnyardgrass (62 g ai/ha).

Take `CCCc1nc(-c2ccc(F)cc2)nn1Cc1ccnc(C(F)(F)F)c1` [Compound 6, 4-[[3-(4-fluorophenyl)-5-propyl-1H-1,2,4-triazol-1-yl]methyl]-2-(trifluoromethyl)pyridine]: the “Wheat plant response rating (0 to 100)” value in the assay on wheat (winter wheat) (31 g ai/ha) is reported as 0; in the assay with wheat (winter wheat) (62 g ai/ha), 10. Besides, the “Plant response rating (scale of 0 to 100 where 0 is no effect and 100 is complete control)” value in the assay with wheat (winter wheat) is on record as 60; in the assay on barnyardgrass (125 g ai/ha), 95; in the assay with barnyardgrass (250 g ai/ha), 98. The entries for the “Barnyardgrass plant response rating (0 to 100)” value in the assay with barnyardgrass (31 g ai/ha) and in the assay on barnyardgrass (62 g ai/ha) were 50 and 75, respectively.

With `COc1nc(-c2ccc(F)cc2)nn1Cc1ccnc(C(F)(F)F)c1` [Compound 9, 4-[[3-(4-fluorophenyl)-5-methoxy-1H-1,2,4-triazol-1-yl]methyl]-2-(trifluoromethyl)pyridine], the entries for the “Wheat plant response rating (0 to 100)” value in the assay with wheat (winter wheat) (31 g ai/ha) and in the assay on wheat (winter wheat) (62 g ai/ha) were 0 and 5, respectively. Also, the results for the “Plant response rating (scale of 0 to 100 where 0 is no effect and 100 is complete control)” value with wheat (winter wheat), in the assay with barnyardgrass (125 g ai/ha) and in the assay on barnyardgrass (250 g ai/ha) were 25, 70 and 85, respectively. The entries for the “Barnyardgrass plant response rating (0 to 100)” value in the assay on barnyardgrass (31 g ai/ha) and in the assay with barnyardgrass (62 g ai/ha) were 5 and 35, respectively.

Turning to `COc1nc(-c2ccc(C(F)(F)F)cc2)nn1Cc1ccnc(C(F)(F)F)c1` [Compound 25], the “Plant response rating, Galium” value in the assay with galium (31 g ai/ha) was determined as 60; in the assay with galium (125 g ai/ha), 80. Also, the “Plant response rating, Ryegrass, Italian” value in the assay on ryegrass, Italian (31 g ai/ha) is 10; in the assay on ryegrass, Italian (125 g ai/ha), 30.

For the molecule `CCOc1nc(-c2ccc(Cl)cc2)nn1Cc1ccnc(C(F)(F)F)c1` [Compound 26], the “Plant response rating, Galium” value is on record as 60 in the assay on galium (31 g ai/ha) and 90 in the assay with galium (125 g ai/ha). For the same molecule, the “Plant response rating, Ryegrass, Italian” value in the assay on ryegrass, Italian (31 g ai/ha) is recorded as 20; in the assay with ryegrass, Italian (125 g ai/ha), 50.

In the case of `COc1nc(-c2ccc(Cl)cc2)nn1Cc1ccnc(C(F)(F)F)c1` [Compound 28], in the assay with bluegrass (setting [1]), the “Plant response rating (0 to 100), Bluegrass” value is listed as 25. Besides, the “Plant response rating: Bluegrass” value in the assay with bluegrass (31 g ai/ha) worked out at 35; with bluegrass (62 g ai/ha), 45; with bluegrass (125 g ai/ha) it was 85. Also, the “Plant response rating: Barley, Spring” value stood at 15 with barley, spring (16 g ai/ha); 20 with barley, spring (31 g ai/ha); 20 in the assay with barley, spring (62 g ai/ha); 25 in the assay with barley, spring (125 g ai/ha). Besides, the “Plant response rating: Barley, Winter” value worked out at 10 with barley, winter (16 g ai/ha); 15 with barley, winter (31 g ai/ha); 20 in the assay with barley, winter (62 g ai/ha); 25 with barley, winter (125 g ai/ha). Besides, the “Plant response rating, Galium” value in the assay on galium (125 g ai/ha) turned out to be 50; in the assay with galium (500 g ai/ha) it was 80. The “Plant response rating (0 to 100), Foxtail, Green” value in the assay on foxtail, green (setting [1]) was determined as 80. The “Plant response rating: Foxtail, Green” value stood at 85 in the assay on foxtail, green (62 g ai/ha) and 100 in the assay on foxtail, green (125 g ai/ha). Besides, the “Plant response rating: Kochia” value in the assay with kochia (16 g ai/ha) was determined as 85; in the assay with kochia (31 g ai/ha) it was 85; with kochia (62 g ai/ha) it was 85; in the assay with kochia (125 g ai/ha), 95. Besides, the “Plant response rating, Ryegrass, Italian” value in the assay with ryegrass, Italian (125 g ai/ha) amounted to 20; with ryegrass, Italian (500 g ai/ha), 50.

Turning to `COc1nc(-c2ccccc2)nn1Cc1ccnc(C(F)(F)F)c1` [Compound 32], the “Wheat plant response rating (0 to 100)” value in the assay with wheat (winter wheat) (31 g ai/ha) and in the assay on wheat (winter wheat) (62 g ai/ha) was 0 throughout. Besides, the “Plant response rating (scale of 0 to 100 where 0 is no effect and 100 is complete control)” value in the assay on wheat (winter wheat) came out at 0; in the assay on barnyardgrass (125 g ai/ha), 10; with barnyardgrass (250 g ai/ha), 75. For the same molecule, the “Plant response rating, Galium” value with galium (125 g ai/ha) came out at 60; in the assay on galium (500 g ai/ha) it was 90. Further, the “Plant response rating, Ryegrass, Italian” value turned out to be 0 in the assay on ryegrass, Italian (125 g ai/ha) and 50 in the assay on ryegrass, Italian (500 g ai/ha). In addition, the “Barnyardgrass plant response rating (0 to 100)” value in the assay on barnyardgrass (31 g ai/ha) was determined as 0; in the assay with barnyardgrass (62 g ai/ha) it was 5.

Consider `CCCOc1nc(-c2ccccc2)nn1Cc1ccnc(C(F)(F)F)c1` [Compound 33], for which the figures for the “Plant response rating, Galium” value in the assay on galium (125 g ai/ha) and with galium (500 g ai/ha) were 70 and 80, respectively. In addition, the “Plant response rating, Ryegrass, Italian” value in the assay on ryegrass, Italian (125 g ai/ha) came out at 10; in the assay on ryegrass, Italian (500 g ai/ha) it was 40.
